Measured values as given in US12390458B2, “Therapeutic combination of quinoline derivative and antibody” (CHIA TAI TIANQING PHARMACEUTICAL GROUP CO., LTD., priority 2018, dated 2025).
Structures can show the parent of a compound that is named as a salt.

Tests used:
[1] = Open, multicenter phase Ib/II clinical study, first-line 14C12H1L1 plus anlotinib hydrochloride: adverse events; assay type: in vivo, human; conditions: patients on combined 14C12H1L1 + anlotinib, events related to the labelled treatment; for TRAE (incidence of treatment-related adverse events) / ≥ grade 3 TRAEs: by Jun. 27, 2019
Excerpt: This example discloses the results of an early open, multicenter phase Ib/II clinical study on first-line treatment of unresectable hepatocellular carcinoma with combined use of 14C12H1L1 and anlotinib hydrochloride.
This study is an open, multicenter phase Ib/II clinical study aimed at evaluating the effectiveness, i.e. safety, of 14C12H1L1 in combination with anlotinib in the first line treatment of unresectable hepatocellular carcinoma.
Secondary endpoints: (1) disease control rate (DCR), duration of response (DOR), time to response (TTR), progression-free survival (PFS), and treatment past progression (TPP) being evaluated by investigators according to RECISIT v1.1; (2) overall survival (OS); (3) safety evaluation: incidence and severity of AEs, clinically significant abnormal laboratory test results.
14C12H1L1 injection, 100 mg/10 mL solution; manufacturer: Akeso Tiancheng Guangdong Co., Ltd.; stored at 2-8° C. in the absence of light.
Anlotinib hydrochloride capsules (FOCUS V®), 8 mg/capsule; manufacturer: Chia Tai Tianging Pharmaceutical Group Co., Ltd.; sealed and be away from light.
14C12H1L1 in combination with anlotinib, wherein the 14C12H1L1: 200 mg, Q3W intravenous injection; anlotinib: taken once a day, 8 mg each time, 14 days of treatment plus 7 days of interruption, i.e., a treatment cycle of 21 days.

[2] = system: mouse liver cancer H22 subcutaneous xenograft tumor; experiment: Efficacy on mouse liver cancer H22 subcutaneous xenograft tumor; assay type: in vivo; conditions: for Mean tumor volume (mm^3) D0: D0, day of first administration (baseline), KM mice, 10 per group; for % T/C D17 / Tumor growth inhibition (%): anlotinib hydrochloride 1 mg/kg i.g. QD×17, lenvatinib mesylate 5 mg/kg i.g. QD×17, mPD-1 1 mg/kg IP 5 times; for % T/C D17 / Tumor growth inhibition (%) / Mean tumor volume (mm^3) D17: D17; for Mean tumor volume (mm^3) D17: anlotinib hydrochloride 1 mg/kg i.g. QD×17, lenvatinib mesylate 5 mg/kg i.g. QD×17, mPD-1 1 mg/kg IP D0, D3, D7, D10, D14; for Complete regression / Partial regression: number of animals out of 10 per group
Procedure: The H22 cells were cultured in a 10-cm petri dish with RPMI 1640 medium containing 10% fetal bovine serum, penicillin and streptomycin in an incubator at 37° C. and 5% CO2. Subculturing was carried out twice a week and cells were collected, counted and inoculated when the cells grew exponentially.
KM mice, 6-7 weeks old, female, purchased from Shanghai JSJ Laboratory Animal Co. Ltd. Production license No.: SCXK (Shanghai) 2013-0006; animal certification No.: 311620400013790. Breeding environment: SPF grade.
The experimental index is to study the influence of the drug on the tumor growth, and the specific index is T/C (%) or tumor growth inhibition TGI (%).
Tumor diameters were measured twice weekly with a vernier caliper and tumor volume (V) was calculated according to the following formula: V=½×a×b^2, where a and b represent length and width, respectively.
T/C (%)=(T−T0)/(C−C0)×100, where T and C are the tumor volumes of animals at the end of the experiment in the test group and control group, respectively; T0 and C0 are the tumor volumes of animals at the beginning of the experiment in the test group and control group, respectively. Tumor growth inhibition (TGI)(%)=100−T/C(%). Tumor growth inhibition (TGI)(%)=100−(T−T0)/T0×100 when tumor started to regress.
If the volume of tumor shrinks compared with its initial volume, i.e., T<T0 […], it is defined as partial regression (PR) of tumor; if the tumor completely disappears, it is defined as complete regression (CR) of tumor.
(§1) H22 cells were inoculated to each mouse subcutaneously, and when the tumor grew to 100-200 mm^3, the mice were randomly grouped and intragastrically (i.g.) administered or intraperitoneal (IP) injected with drug; the mice in the solvent group were intragastrically administrated with distilled water with the same volume; the administration volume was 0.1 mL/10 g body weight; specific administration dosages and regimes are shown in Table 4.
After the experiment was completed, or when the tumor volume of the animals reached the euthanization endpoint of 1500 mm^3, the animals were put to death through carbon dioxide inhalation, followed by dissecting to take the tumor tissue and weighing and photographing.

[3] = Body weight and tolerance of H22 tumor-bearing mice; assay type: in vivo
Procedure: The use and welfare of the laboratory animals were carried out in compliance with the provisions of Association for Assessment and Accreditation of Laboratory Animal Care, International (AAALAC). The health and death of the animals are monitored daily and routine examinations include observation of the effects of the test substance or drug on the daily performance of the animals, such as behavioral activities, weight changes, appearance, etc.
as §1

[4] = phase II trial; cited from earlier work
advanced NSCLC = conditions: phase III; Chinese patients; cited from earlier work

| Compound | TRAE (incidence of treatment-related adverse events) [1] | ≥ grade 3 TRAEs [1] | SAE [1] | TRAEs resulting in the withdrawal [1] | Mean tumor volume (mm^3) D0 [2] | % T/C D17 [2] | Tumor growth inhibition (%) [2] | Mean tumor volume (mm^3) D17 [2] | Complete regression ([2]; same doses) | Partial regression ([2]; same doses) | body weight / tolerance of tumor-bearing mice ([3]; D0-D17, anlotinib hydrochloride 1 mg/kg, lenvatinib mesylate 5 mg/kg, mPD-1 1 mg/kg) | overall survival [4] | progression-free survival [4] | overall survival and progression-free survival (advanced NSCLC) | tolerability (advanced NSCLC) | tumor growth / efficacy in words ([2]; D0-D17, same doses, comparison between groups) | body weight / tolerance of tumor-bearing mice ([3]; mouse, in vivo) |
| --- | --- | --- | --- | --- | --- | --- | --- | --- | --- | --- | --- | --- | --- | --- | --- | --- | --- |
| 14C12H1L1: anti-PD-1 monoclonal antibody (Akeso Bioscience); CN106977602A; CDRs SEQ ID NO: 25-30 | 62.5% | 6.25% | 6.25% | 6.25% |  |  |  |  |  |  |  |  |  |  |  |  |  |
| COc1cc2c(Oc3ccc4[nH]c(C)cc4c3F)ccnc2cc1OCC1(N)CC1 [Anlotinib hydrochloride, 1-[[[4-(4-fluoro-2-methyl-1H-indol-5-yl)oxy-6-methoxyquinolin-7-yl]oxy]methyl]cyclopropylamine hydrochloride] |  |  |  |  | 131.4 mm^3 | 38.3% | 61.7% | 975.3 mm^3 | 0 | 0 | no symptom like obvious weight loss |  |  |  |  |  |  |
| COc1cc2c(Oc3ccc4[nH]c(C)cc4c3F)ccnc2cc1OCC1(N)CC1 [Anlotinib, 1-[[[4-(4-fluoro-2-methyl-1H-indol-5-yl)oxy-6-methoxyquinolin-7-yl]oxy]methyl]cyclopropylamine] | 75% | 12.5% | 12.5% | 12.5% |  |  |  |  |  |  |  | potential benefit for overall survival | improve progression-free survival | extended overall survival and progression-free survival | well tolerated |  |  |
| COc1cc2nccc(Oc3ccc(NC(=O)NC4CC4)c(Cl)c3)c2cc1C(N)=O [Lenvatinib mesylate] |  |  |  |  | 127.6 mm^3 | 21.0% | 79% | 590.8 mm^3 | 0 | 0 |  |  |  |  |  | obviously inhibits the growth | no symptom like obvious weight loss |
